In ChEMBL document CHEMBL5316313, “Discovery of Novel 3-Phenylpiperidine Derivatives Targeting the β-Catenin/B-Cell Lymphoma 9 Interaction as a Single Agent and in Combination with the Anti-PD-1 Antibody for the Treatment of Colorectal Cancer” (J Med Chem, 2023):
Active and inactive are the calls of the source. The rule behind the calls is not given here.

How the values were obtained:
[1] = Microsomal stability in human liver microsomes assessed as half life at […] and measured upto 60 mins by LC-MS/MS analysis; format: ADME, Microsome
HEK293 [2] = experiment: Induction of apoptosis in Wnt-independent human HEK293 cells assessed as late apoptotic cells at 10 uM incubated for 24 hrs by Annexin V-Alexa Fluor 647/PI staining based flow cytomtery (Rvb=10.5%); format: functional
HEK293 [3] = experiment: Induction of apoptosis in Wnt-independent human HEK293 cells assessed as late apoptotic cells at 20 uM incubated for 24 hrs by Annexin V-Alexa Fluor 647/PI staining based flow cytomtery (Rvb=10.5%); format: functional
[4] = Cmax in Sprague-Dawley rat at 21 mg/kg, ip and measured upto 24 hrs by LC-MS analysis; format: ADME, organism-based; parameters: dose 21 mg/kg, time < 24 hrs, route ip; settings: in vivo
CT26 [5] = experiment: Antitumor activity against mouse CT26 cells xenografted in BALB/c mouse assessed as tumor growth inhibition at 30 mg/kg, ip QD and measured upto 9 days in presence of anti-PD-1 antibody cotreatment at 10 mg/kg,ip BIW; format: functional; settings: CT26, 216 h, time <= 9 day, read-out: TGI
[6] = Half life in Sprague-Dawley rat at 21 mg/kg, ip and measured upto 24 hrs by LC-MS analysis; format: ADME, organism-based; settings: in vivo
A549 = experiment: Antiproliferative activity against Wnt-independent human A549 cells assessed as cell growth inhibition at 40 uM incubated for 48 hrs by CellTiter-Glo assay; format: functional, cell-based
CT26 [7] = experiment: Induction of apoptosis in Wnt-dependent mouse CT26 cells assessed as viable cells at 10 uM incubated for 24 hrs by Annexin V-Alexa Fluor 647/PI staining based flow cytomtery (Rvb=70.7%); format: functional; settings: read-out: Activity
HCT-116 = experiment: Induction of apoptosis in Wnt-dependent human HCT-116 cells assessed as viable cells at 10 uM incubated for 24 hrs by Annexin V-Alexa Fluor 647/PI staining based flow cytomtery (Rvb=69.5%); format: functional; settings: read-out: Activity
[8] = Toxicity in BALB/c mouse xenografted with mouse CT26 cells assessed as body weight loss at 30 mg/kg, ip QD and measured upto 9 days in presence of anti-PD-1 antibody cotreatment at 10 mg/kg,ip BIW; format: organism-based; settings: in vivo, 216 h, time < 9 day
[9] = biological target: T1, beta-catenin-B-cell lymphoma 9 protein complex (Homo sapiens, UniProt P35222); experiment: Inhibition of beta-catenin/BCL9 protein-protein interaction in Wnt-dependent human SW480 cells assessed as reduction in Axin2 expression level by qRT-PCR assay; format: cell-based
T1 sequence (P35222 whole entry): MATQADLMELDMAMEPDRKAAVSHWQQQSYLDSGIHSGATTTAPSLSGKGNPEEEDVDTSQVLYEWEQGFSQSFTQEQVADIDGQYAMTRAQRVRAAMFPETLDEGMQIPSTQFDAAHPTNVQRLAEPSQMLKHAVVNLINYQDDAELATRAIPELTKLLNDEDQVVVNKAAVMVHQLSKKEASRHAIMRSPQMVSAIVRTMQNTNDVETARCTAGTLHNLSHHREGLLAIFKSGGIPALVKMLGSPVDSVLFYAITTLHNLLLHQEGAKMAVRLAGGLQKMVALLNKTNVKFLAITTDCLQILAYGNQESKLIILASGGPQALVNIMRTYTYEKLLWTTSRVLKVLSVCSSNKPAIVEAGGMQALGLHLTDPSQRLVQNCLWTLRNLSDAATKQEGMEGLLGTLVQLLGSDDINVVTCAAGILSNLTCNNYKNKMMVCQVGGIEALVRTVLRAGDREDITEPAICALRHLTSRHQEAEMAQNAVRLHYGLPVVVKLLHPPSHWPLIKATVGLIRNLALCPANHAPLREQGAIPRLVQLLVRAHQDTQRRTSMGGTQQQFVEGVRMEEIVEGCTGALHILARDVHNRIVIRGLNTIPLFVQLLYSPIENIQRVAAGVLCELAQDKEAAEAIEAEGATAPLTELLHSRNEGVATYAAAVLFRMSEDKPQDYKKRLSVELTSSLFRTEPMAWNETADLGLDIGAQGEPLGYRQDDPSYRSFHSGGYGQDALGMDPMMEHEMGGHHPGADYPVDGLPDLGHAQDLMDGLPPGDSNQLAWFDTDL
T1 sequence (O00512 whole entry): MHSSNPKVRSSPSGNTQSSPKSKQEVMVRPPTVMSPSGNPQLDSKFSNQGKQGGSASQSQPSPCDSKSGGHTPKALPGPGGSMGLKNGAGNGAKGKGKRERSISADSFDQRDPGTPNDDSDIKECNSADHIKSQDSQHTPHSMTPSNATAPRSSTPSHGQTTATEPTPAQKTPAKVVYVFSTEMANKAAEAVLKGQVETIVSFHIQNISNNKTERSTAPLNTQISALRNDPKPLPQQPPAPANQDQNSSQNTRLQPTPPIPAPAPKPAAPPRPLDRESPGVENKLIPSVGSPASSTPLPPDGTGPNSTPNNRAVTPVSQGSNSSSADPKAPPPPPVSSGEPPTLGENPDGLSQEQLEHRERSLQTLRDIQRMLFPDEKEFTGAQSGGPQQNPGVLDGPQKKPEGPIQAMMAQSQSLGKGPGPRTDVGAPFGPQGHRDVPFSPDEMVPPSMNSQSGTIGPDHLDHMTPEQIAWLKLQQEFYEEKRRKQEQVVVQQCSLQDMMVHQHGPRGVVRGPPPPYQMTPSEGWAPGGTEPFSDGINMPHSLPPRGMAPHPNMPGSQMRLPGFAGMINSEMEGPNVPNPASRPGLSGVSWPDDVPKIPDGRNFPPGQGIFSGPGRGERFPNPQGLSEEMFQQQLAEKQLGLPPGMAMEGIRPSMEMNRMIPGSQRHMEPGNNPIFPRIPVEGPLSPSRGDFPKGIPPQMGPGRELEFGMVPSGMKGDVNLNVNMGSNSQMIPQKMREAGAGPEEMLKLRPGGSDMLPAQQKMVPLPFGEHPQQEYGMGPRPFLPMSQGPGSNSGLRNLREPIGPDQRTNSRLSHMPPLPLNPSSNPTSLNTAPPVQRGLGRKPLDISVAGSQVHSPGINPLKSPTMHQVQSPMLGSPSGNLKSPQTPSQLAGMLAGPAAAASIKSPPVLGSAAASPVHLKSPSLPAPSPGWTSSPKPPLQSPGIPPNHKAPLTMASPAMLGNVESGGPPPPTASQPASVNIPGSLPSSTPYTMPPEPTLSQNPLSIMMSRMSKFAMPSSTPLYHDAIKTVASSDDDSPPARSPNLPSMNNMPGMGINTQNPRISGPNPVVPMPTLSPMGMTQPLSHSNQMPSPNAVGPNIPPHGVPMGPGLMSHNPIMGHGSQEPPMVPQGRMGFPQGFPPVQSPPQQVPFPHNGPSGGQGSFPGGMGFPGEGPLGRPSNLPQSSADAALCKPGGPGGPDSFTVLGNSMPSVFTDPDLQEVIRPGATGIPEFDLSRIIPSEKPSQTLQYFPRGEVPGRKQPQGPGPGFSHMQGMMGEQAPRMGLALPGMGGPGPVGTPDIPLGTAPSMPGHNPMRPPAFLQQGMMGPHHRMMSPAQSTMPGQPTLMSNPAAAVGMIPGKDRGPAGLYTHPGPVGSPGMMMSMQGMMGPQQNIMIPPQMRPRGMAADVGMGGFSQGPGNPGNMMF

| half-life [1] | Cmax [4] | half-life [6] | IC50 [9] | SMILES | Activity (HEK293 [2]) | Activity (HEK293 [3]) | inhibition in vivo at 30 mg/kg (CT26 [5]) | Activity (A549) | viability at 10 µM (CT26 [7]) | viability at 10 µM (HCT-116) | Activity [8] |
| --- | --- | --- | --- | --- | --- | --- | --- | --- | --- | --- | --- |
| 32.1 min | 6960 ng/mL | 69 min |  | CC(C)c1ccc(-c2cccc(S(=O)(=O)N3CCCC(c4cccc(OC(C)(C)C(=O)NS(=O)(=O)c5ccc(C(F)(F)F)cc5)c4)C3)c2)cc1 (stereo unspecified) | 14.9% | 16.6% | 81.1% | inactive | 43.8% | 59.8% | Non-Toxic |
|  |  |  | 10.6 µM | O=C1[C@H](Cc2ccc(O)cc2)N2C(=O)CCN(C(=O)NCc3ccccc3)[C@H]2CN1Cc1cccc2ccccc12 |  |  |  |  |  |  |  |
